Reference: patent US8557800B2, “Sphingosine kinase inhibitors” (Apogee Biotechnology Corporation, priority 2005, dated 2013)

How the values were obtained:
[1] = system: endogenous SK in MDA-MB-231 human breast carcinoma cells; experiment: Intact cell SK assay, conversion of [3H]sphingosine to [3H]S1P; type: cell-based; conditions: MDA-MB-231 cells, 20 μg/ml compound
Excerpt: The cells take up the exogenous [^3H]sphingosine and convert it to [^3H]S1P through the action of endogenous SK. The resulting [^3H]S1P is isolated via charge-based separation as indicated above. […] For potency studies, MDA-MB-231 cells were exposure to varying concentrations of a test Compound and then assayed for conversion of [^3H]sphingosine to [^3H]S1P.

[2] = system: recombinant human SK; experiment: Inhibition of recombinant human SK, LC/MS/MS assay; type: biochemical; conditions: 6 μg/ml compound
Method in brief: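 Enzyme incubated with unlabeled sphingosine and ATP (1 mM, as in the radiometric format) for 30 min, then stopped and extracted with acetonitrile. S1P quantified by C8 reverse-phase HPLC–MS/MS against C17 sphingosine and C17 S1P internal standards using calibration curves.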

[3] = system: MCF-10A non-transformed human breast epithelial cells; experiment: Cytotoxicity, SRB binding assay; type: cell-based; conditions: inhibition of cell proliferation, 48 h, read-out: MCF-10A IC50
Method in brief: (§1)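 Cells exposed to varying compound doses for 48 h, then survival measured by sulforhodamine B staining. IC50 is the concentration giving 50% proliferation inhibition, in μM, as mean±sd of replicate trials.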

[4] = system: MCF-7 human breast adenocarcinoma cells; experiment: Cytotoxicity, SRB binding assay; type: cell-based; conditions: MCF7, inhibition of cell proliferation, 48 h, read-out: MCF-7 IC50
Method in brief: as §1

[5] = system: mouse JC mammary adenocarcimona cell line growing subcutaneously in Balb/c mice; conditions: JC tumor model, intraperitoneal (ip) or oral (po) administration
Description: The antitumor activity of the representative SK inhibitors were evaluated using a syngeneic tumor model that uses the mouse JC mammary adenocarcimona cell line growing subcutaneously in immunocompetent Balb/c mice (Lee et al., 2003, Oncol Res 14: 49).
In FIG. 1, Balb/c mice, 6-8 weeks old, were injected subcutaneously with 10^6 JC cells suspended in phosphate-buffered saline. The SK inhibitors Compounds 62 and 57 were dissolved in PEG400 and administered to mice every-other day at a dose of 100 mg/kg. Body weights and tumor volumes were monitored daily. In FIG. 1, tumor growth is expressed as the tumor volume relative to day 1 for each animal.

[6] = system: C57BL/6 mice, DSS model of IBD; experiment: Acute DSS-colitis model; type: in vivo, mouse; conditions: 2% DSS, 50 mg/kg oral daily
Description: We have conducted experiments with SK inhibitors using the dextran sulfate sodium (DSS) model of IBD. In these experiments, male C57BL/6 mice were provided with standard rodent diet and water ad libitum. After their acclimation, the animals were randomly divided into groups of 5 or 6 for DSS (40,000 MW from ICN Biomedicals, Inc., Aurora, Ohio)—and drug-treatment. The SK inhibitors were dissolved in PEG400, and given once daily by oral gavage in a volume of 0.1 mL per dose. Dipentum, an FDA-approved anti-colitis drug whose active ingredient, olsalazine, is converted to 5-aminosalicylic acid in vivo, was used as a positive control. The mice were given normal drinking water or 2% DSS and treated orally with an SK inhibitor or Dipentum at a dose of 50 mk/kg daily. The body weight of each animal was measured each day, and the Disease Activity Index (DAI) was scored for each animal on Days 4-6. On Day 6, the animals were sacrificed by cervical dislocation and the entire colon was removed and measured to the nearest 0.1 cm. Portions of the colons were then fixed, sectioned and their histologies were assessed on a blinded basis to determine their Histology Score. Other portions of the colons were used for biochemical analyses of inflammation markers.

[7] = system: mice, multiple cycles of DSS-induced inflammation; experiment: Chronic DSS-colitis model (35-day); type: in vivo, mouse
Description: FIG. 13. Effects of Compound 62 on the DAI in the chronic DSS-colitis model. Mice received 2 cycles (7 days per cycle) of DSS (1.5% cycle 1 and 1% cycle 2), 2 cycles of normal drinking water and were randomized by DAI on Day 28 into groups of 8 mice. The mice were then treated as follows: No DSS (▪)—normal drinking water and orally dosed with PEG400 every day for 7 days (water control); DSS alone (▴)—drinking water containing 1.5% DSS and orally dosed with PEG daily for 7 days; DSS+Compound 62 (▾)—drinking water containing 1.5% DSS and orally dosed with Compound 62 (50 mg/kg) every day for 7 days; DSS+Dipentum (♦)—drinking water containing 1.5% DSS and orally dosed with Dipentum (50 mg/kg). *p<0.001 versus No DSS group.
A 35-day model of IBD was used to evaluate the effectiveness of the SK inhibitors in mice that experience multiple cycles of DSS-induced inflammation. This chronic model is similar to the acute model, except that the DSS concentration in the drinking water is lower and animals receive periodic exposure to DSS (DSS on days 1-7, water on Days 8-13, DSS on day 14-21, water on Days 22-27 and then DSS until the completion of the study on Day 35). In these experiments, treatment of the mice with an SK inhibitor or Dipentum began on Day 28 and continued daily until the completion of the study. The DAI index was monitored every other day until Day 28 and then daily until Day 35. Animals were sacrificed on Day 35, and changes in the colon length and cytokine profiles were measured.

O=C(NCc1ccc(O)c(O)c1)C12CC3CC(C1)CC(c1ccc(Cl)cc1)(C3)C2 [Compound 36, 3-(4-Chloro-phenyl)-adamantane-1-carboxylic acid 3,4-dihydroxy-benzylamide]
Cellular S1P (% inhibition) [1]: 72% | Recombinant SK (% inhibition) [2]: 37% | IC50 [3]: 9 µM | IC50 [4]: 13 µM

COc1ccc(CCNC(=O)C23CC4CC(C2)CC(c2ccc(Cl)cc2)(C4)C3)cc1 [Compound 41, 3-(4-Chloro-phenyl)-adamantane-1-carboxylic acid [2-(4-methoxy-phenyl)-ethyl]-amide]
Cellular S1P (% inhibition) [1]: 23% | Recombinant SK (% inhibition) [2]: 67% | IC50 [3]: 71 µM | IC50 [4]: 6 µM

O=C(NCCc1ccc(O)c(O)c1)C12CC3CC(C1)CC(c1ccc(Cl)cc1)(C3)C2 [Compound 44, 3-(4-Chloro-phenyl)-adamantane-1-carboxylic acid [2-(3,4-dihydroxy-phenyl)-ethyl]-amide]
IC50 [3]: 9 µM | IC50 [4]: 6 µM | In vivo activity [5]: active - ip

CN1CCC(NC(=O)C23CC4CC(C2)CC(c2ccc(Cl)cc2)(C4)C3)CC1 [Compound 51, 3-(4-Chloro-phenyl)-adamantane-1-carboxylic acid (1-methyl-piperidin-4-yl)-amide]
Recombinant SK (% inhibition) [2]: 84% | IC50 [3]: 25 µM | IC50 [4]: 8 µM | In vivo activity [5]: active - ip and po

O=C(NCCc1ccncc1)C12CC3CC(CC(C3)C1)C2 [Compound 63, Adamantane-1-carboxylic acid (2-pyridin-4-yl-ethyl)-amide]
Cellular S1P (% inhibition) [1]: 39% | Recombinant SK (% inhibition) [2]: 0% | IC50 [4]: 11 µM

Oc1ccc(NCC23CC4CC(C2)CC(c2ccc(Cl)cc2)(C4)C3)cc1 [Compound 76, 4-{[3-(4-Chloro-phenyl)-adamantan-1-ylmethyl]-amino}-phenol]
Recombinant SK (% inhibition) [2]: 42% | IC50 [4]: 5 µM | melting point: 138 to 140 °C

CCn1c2ccccc2c2cc(NCC34CC5CC(C3)CC(c3ccc(Cl)cc3)(C5)C4)ccc21 [Compound 89, [3-(4-Chloro-phenyl)-adamantan-1-ylmethyl]-(9-ethyl-9H-carbazol-3-yl)-amine]
Cellular S1P (% inhibition) [1]: 1% | Recombinant SK (% inhibition) [2]: 37% | IC50 [3]: 41 µM | IC50 [4]: 74 µM

CC(NC1CCN(C)CC1)C12CC3CC(CC(c4ccc(Cl)cc4)(C3)C1)C2 (stereo not drawn) [Compound 107, {1-[3-(4-Chloro-phenyl)-adamantan-1-yl]-ethyl}-(1-methyl-piperidin-4-yl)-amine]
IC50 [3]: 1 µM | IC50 [4]: 1 µM | In vivo activity [5]: active - ip

CCn1c2ccccc2c2cc(NC(C)C34CC5CC(CC(c6ccc(Cl)cc6)(C5)C3)C4)ccc21 (stereo not drawn) [Compound 114, {1-[3-(4-Chloro-phenyl)-adamantan-1-yl]-ethyl}-(9-ethyl-9H-carbazol-3-yl)-amine]
Recombinant SK (% inhibition) [2]: 33% | IC50 [3]: 9 µM | IC50 [4]: 55 µM

O=C(/C=C/c1ccc(O)cc1)C12CC3CC(C1)CC(c1ccc(Cl)cc1)(C3)C2 [Compound 132, 1-[3-(4-Chloro-phenyl)-adamantan-1-yl]-3-(4-hydroxy-phenyl)-propenone]
Recombinant SK (% inhibition) [2]: 8% | IC50 [4]: 17 µM | melting point: 87 to 89 °C

O=C(/C=C/c1ccc2ccccc2c1)C12CC3CC(C1)CC(c1ccc(Cl)cc1)(C3)C2 [Compound 133, 1-[3-(4-Chloro-phenyl)-adamantan-1-yl]-3-naphthalen-2-yl-propenone]
Recombinant SK (% inhibition) [2]: 36% | IC50 [4]: 13 µM | melting point: 82 to 84 °C

CCn1c2ccccc2c2cc(/C=C/C(=O)C34CC5CC(C3)CC(c3ccc(Cl)cc3)(C5)C4)ccc21 [Compound 136, 1-[3-(4-Chloro-phenyl)-adamantan-1-yl]-3-(9-ethyl-9H-carbazol-3-yl)-propenone]
IC50 [4]: 8 µM | melting point: 138 to 140 °C

O=C(O)c1cc(/N=N/c2ccc(O)c(C(=O)O)c2)ccc1O [Dipentum, olsalazine, reference compound]
elevations of colon pro-inflammatory proteins IFN-γ, IL-1β, IL-6 and TNFα [6]: attenuated | increase in colon myeloperoxidase (MPO) activity [6]: markedly attenuated | Histology Score vs DSS-alone animals ([6]; Day 6): consistently lower | colon length ([6]; Day 6): intermediate length | Disease Activity Index (intensity of IBD manifestations) ([6]; Days 4-6): reduced | colon length ([7]; 50 mg/kg oral daily Day 28-35, DSS alone 4.9±0.2, water 7.8±0.3): 6.1±0.2 cm | increase in DAI ([7]; 50 mg/kg oral daily from Day 28 to Day 35, third DSS exposure): significantly suppressed | serum level of IL-6 ([7]; at sacrifice, Day 35): reduced | colon levels of pro-inflammatory cytokines TNFα, IL-1β, IFN-γ and IL-6 ([7]; treated during the final DSS cycle): equivalent to the DSS-alone group
